Experimental data from patent US20140038847A1, “SCREENING AND CULTURING DEVICE AND METHODS FOR THE USE THEREOF” (Microstem, Inc., priority 2010, published 2014).

How the values were obtained:
[1] = test system: A549 lung cancer cell line; experiment: TGF-β-induced epithelial mesenchymal transition of A549 cells on MicroMatrix ECM array (e-cadherin / vimentin staining); assay type: cell-based, human
Experimental: Packages containing products which embody present invention (MicroMatrix™ slides) were removed from −20° C. and brought to room temperature (RT). Using sterile techniques, 4 MicroMatrix™ slides were removed from packaging and put into a 4-chamber slide tray. A549 cells (ATCC, Rockville, Md.) were cultured according to manufacturer's protocol in complete medium of DMEM containing 10% FBS and antibiotics (Life Technology, CA) in standard tissue culture treated T-75 flasks (Corning).
Cells were trypsinized with EDTA for 5 minutes and neutralized with 10 ml of complete medium. Neutralized cell suspensions were put into a 50 ml conical tube and centrifuged for 6 minutes at 1100 rpm. Five milliliters of complete medium containing 5×10^5 cells was added to each of 4 identical MicroMatrix™ slides in the slide tray. The tray was placed in a 37° C. incubator with 5% CO2 and cells were allowed to attach to ECM spots overnight (14 hrs).
Unattached cells and media were aspirated from the slides and 5 ml of media containing 1% FBS with or without 5 ng/ml of TGF-β were added to each chamber. After 24 hrs, media was aspirated from the chamber and 5 ml of 4% para-formaldehyde (PFA) in 1×PBS (fixation buffer) was added to each slide for 10 minutes at RT.
Fixation buffer was aspirated from chambers and fixed slides were stained for nuclei, e-cadherin and vimentin expression. Briefly, mouse anti-human e-cadherin antibody (BD, CA) and rabbit anti-human vimentin (Cell Signaling Technology) antibody were added to each of 4 slides at a 1:100 dilution in PBS at RT for 3 hours. […]
Cell adhesion was determined by the number of nuclei present on a spot. […] Cells adhered to ECM compositions that met the 25 cell/spot criteria were then analyzed for e-cadherin and vimentin expression using the same Bioapplication software. A ring was formed around segmented objects (nuclei) and fluorescence measurements for secondary channels were captured. Average intensities of e-cadherin and vimentin were calculated and normalized by cells per spot.

[2] = test system: MCF-7 breast carcinoma cells; experiment: Paclitaxel multiparameter cytotoxicity in MCF-7 cells attached to ECM spots of the array (Cellomics Multiparameter Cytotoxicity 3 kit); assay type: cell-based, human; conditions: cells grown on matrix of collagen IV, collagen V and fibronectin in equal concentrations, compared with fibronectin alone
Experimental: The human breast adenocarcinoma cell line MCF-7 was purchased from American Type Culture Collection (ATCC). Cells were cultured in minimal essential medium (DMEM), supplemented with 10% FBS and antibiotics (100 IU/ml of penicillin G), then incubated at 37° C. in a humidified atmosphere of 5% CO2. […] MCF-7 cells were seeded into 4 well plates containing an exemplary microarray slide according to the present invention at a density of about 0.1×10^6 cells/ml in 5 ml complete medium (0.5×10^6 cells/slide, total 8 slides) and cultured at 37° C. After 7 h of incubation, non adherent cells were removed and the slide was washed 1× with complete culture medium. New media with varying concentrations of paclitaxel was added ranging from 0 nM-3 uM (0 nM, 3 nM, 10 nM, 30 nM, 100 nM, 300 nm, 1 μM, 3 μM). Cells were incubated for about 16 h at 37° C. Slides were processed using the protocol provided by the manufacturer of the Cellomics Multiparameter Cytotoxicity 3 kit, employing the reagents included in the kit. […] The resulting slides were kept protected from light and analyzed within about 24 h. […] Compartmental Analysis BioApplication (Cellomics) software was used to quantify fluorescent signal. […]

[3] = A549 on certain combinations of ECMs, 24 hrs, 5 ng/ml TGF-β, compared with other ECM compositions

Compound	e-cadherin expression (epithelial marker) [1, 3]	vimentin expression (mesenchymal marker) [1, 3]	A549 cell attachment ([1]; certain ECM compositions that promote attachment without TGF-β, upon addition of TGF-β)	cytotoxic response of MCF-7 cells to paclitaxel (same cytotoxicity parameters) [2]
TGF-β	decreases in e-cadherin	increases in vimentin expression	cell detachment is observed	–
CC(=O)O[C@H]1C(=O)[C@@]2(C)[C@H]([C@H](OC(=O)c3ccccc3)[C@]3(O)C[C@H](OC(=O)[C@H](O)[C@@H](NC(=O)c4ccccc4)c4ccccc4)C(C)=C1C3(C)C)[C@]1(OC(C)=O)CO[C@@H]1C[C@@H]2O [paclitaxel, Paclitaxel]	–	–	–	maintain a resistance to paclitaxel
